Patent publication US12162890B2 (Novartis AG, priority 2015, dated 2024)

Target: HEK293 cells with stable expression of the GRIN1 gene and tetracycline-inducible expression of the GRIN2B gene (NMDA receptor, NR2B) (Homo sapiens, UniProt Q13224)
Assay: Fluo-8 Ca2+ flux assay: reversal of Ro 25-6981-mediated suppression of the Ca2+ response to co-agonist (glutamate/glycine); further: test concentration or dose not given here
Format: cell-based
Details: reversal of the Ro 25-6981 suppression of the Ca2+ response to co-agonist (glutamate/glycine)

Sequence of HEK293 cells with stable expression of the GRIN1 gene and tetracycline-inducible expression of the GRIN2B gene (NMDA receptor, NR2B) (Q13224 27-1484, other chains not shown): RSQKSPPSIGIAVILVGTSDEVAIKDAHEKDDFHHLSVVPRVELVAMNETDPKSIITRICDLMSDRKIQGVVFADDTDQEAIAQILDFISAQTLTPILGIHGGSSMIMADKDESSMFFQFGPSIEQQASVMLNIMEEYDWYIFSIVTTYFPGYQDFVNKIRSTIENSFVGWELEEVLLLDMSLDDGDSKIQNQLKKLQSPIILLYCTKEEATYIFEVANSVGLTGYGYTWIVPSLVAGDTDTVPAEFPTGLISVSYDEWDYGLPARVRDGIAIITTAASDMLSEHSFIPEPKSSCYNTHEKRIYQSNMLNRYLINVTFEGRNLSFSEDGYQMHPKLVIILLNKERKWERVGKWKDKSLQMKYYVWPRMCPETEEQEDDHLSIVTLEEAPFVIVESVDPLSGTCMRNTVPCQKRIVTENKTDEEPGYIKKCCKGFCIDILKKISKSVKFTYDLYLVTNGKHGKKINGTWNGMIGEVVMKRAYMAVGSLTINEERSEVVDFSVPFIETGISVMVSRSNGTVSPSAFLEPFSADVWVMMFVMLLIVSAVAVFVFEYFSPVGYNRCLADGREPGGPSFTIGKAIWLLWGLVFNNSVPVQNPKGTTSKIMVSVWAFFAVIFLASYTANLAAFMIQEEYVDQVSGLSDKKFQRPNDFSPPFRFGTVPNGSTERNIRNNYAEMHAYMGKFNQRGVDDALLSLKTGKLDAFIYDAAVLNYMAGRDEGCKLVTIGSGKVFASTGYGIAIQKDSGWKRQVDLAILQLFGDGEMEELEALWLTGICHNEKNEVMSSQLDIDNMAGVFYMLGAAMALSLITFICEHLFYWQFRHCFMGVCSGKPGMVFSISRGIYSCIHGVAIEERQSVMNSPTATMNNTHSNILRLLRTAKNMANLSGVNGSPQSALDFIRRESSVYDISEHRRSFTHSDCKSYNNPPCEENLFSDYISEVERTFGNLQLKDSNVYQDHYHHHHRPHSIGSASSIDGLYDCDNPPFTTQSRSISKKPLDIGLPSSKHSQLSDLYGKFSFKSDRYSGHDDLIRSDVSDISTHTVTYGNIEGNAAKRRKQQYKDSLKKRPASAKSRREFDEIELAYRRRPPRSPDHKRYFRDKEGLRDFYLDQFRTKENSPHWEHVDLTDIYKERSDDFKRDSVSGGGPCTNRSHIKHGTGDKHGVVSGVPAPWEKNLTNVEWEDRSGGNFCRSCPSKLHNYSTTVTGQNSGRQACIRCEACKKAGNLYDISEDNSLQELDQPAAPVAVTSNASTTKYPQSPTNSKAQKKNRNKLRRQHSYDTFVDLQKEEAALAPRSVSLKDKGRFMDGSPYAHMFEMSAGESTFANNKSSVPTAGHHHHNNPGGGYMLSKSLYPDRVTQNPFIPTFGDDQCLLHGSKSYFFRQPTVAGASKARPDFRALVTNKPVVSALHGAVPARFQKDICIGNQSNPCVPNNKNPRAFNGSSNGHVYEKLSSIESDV

Row | Compound | Response Recovered (%)
1 | O=C(Cn1ccc2ccc(-c3ccc(Cl)c(Cl)c3)cc2c1=O)N1CCC(F)C1 (centres unmarked) [Example 315, 7-(3,4-dichlorophenyl)-2-(2-(3-fluoropyrrolidin-1-yl)-2-oxoethyl)isoquinolin-1(2H)-one] | 2%
2 | O=C(Cn1ccc2scc(-c3ccc(F)c(C(F)(F)F)c3)c2c1=O)N1CC[C@@H](F)C1 [Example 27, (R)-3-(4-fluoro-3-(trifluoromethyl)phen-yl)-5-(2-(3-fluoropyrrolidin-1-yl)-2-oxoethyl)thieno[3,2-c]pyridin-4(5H)-one] | 81%
3 | O=C(Cn1ccn2ncc(-c3ccc(F)c(C(F)(F)F)c3)c2c1=O)N1CCCC1 [Example 323, 3-(4-fluoro-3-(trifluoromethyl)phenyl)-5-(2-oxo-2-(pyrrolidin-1-yl)ethyl)pyrazolo[1,5-a]pyrazin-4(5H)-one] | 40%
4 | O=C(Cn1cnc2csc(-c3ccc(Cl)c(F)c3)c2c1=O)N1CCC(F)C1 (centres unmarked) [Example 364, 5-(4-chloro-3-fluorophenyl)-3-(2-(3-fluoropyrrolidin-1-yl)-2-oxoethyl)thieno[3,4-d]pyrimidin-4(3H)-one] | 35%
5 | O=C(Cn1ccc2ccc(-c3ccc(F)c(C(F)(F)F)c3)cc2c1=O)N1CCC(F)C1 (centres unmarked) [Example 314, 7-(4-fluoro-3-(trifluoromethyl)phenyl)-2-(2-(3-fluoropyrrolidin-1-yl)-2-oxoethyl)isoquinolin-1(2H)-one] | 8%
6 | O=C(Cn1ccc2scc(-c3ccc(Cl)c(Cl)c3)c2c1=O)N1CC2(CC2)C1 [Example 78, 3-(3,4-dichlorophenyl)-5-(2-oxo-2-(5-azaspiro[2.3]hexan-5-yl)ethyl)thieno[3,2-c]pyridin-4(5H)-one] | 53%
7 | COCCn1cc(-c2ccc(Cl)c(F)c2)c2c(=O)n(CC(=O)N3CCCC3)cnc21 [Example 187, 5-(4-chloro-3-fluorophenyl)-7-(2-methoxyethyl)-3-(2-oxo-2-(pyrrolidin-1-yl)ethyl)-3H-pyrrolo[2,3-d]pyrimidin-4(7H)-one] | 9%
8 | Cn1cc(-n2cc(-c3ccc(F)c(C(F)(F)F)c3)c3c(=O)n(CC(=O)N4CC(C)(F)C4)ccc32)cn1 [Example 236, 3-(4-fluoro-3-(trifluoromethyl)phenyl)-5-(2-(3-fluoro-3-methylazetidin-1-yl)-2-oxoethyl)-1-(1-methyl-1H-pyrazol-4-yl)-1H-pyrrolo[3,2-c]pyridin-4(5H)-one] | 140%
9 | O=C(Cn1cnc2onc(-c3ccc(Cl)cc3)c2c1=O)N1CCCC1C(F)(F)F (centres unmarked) [Example 384, 3-(4-chlorophenyl)-5-{2-oxo-2-[2-(trifluoromethyl)pyrrolidin-1-yl]ethyl}-4H,5H-[1,2]oxazolo[5,4-d]pyrimidin-4-one] | 2%
10 | O=C(Cn1ccc2scc(-c3cnc(Cl)c(C(F)(F)F)c3)c2c1=O)N1CCC(F)C1 (centres unmarked) [Example 25, 3-(6-chloro-5-(trifluoromethyl)pyri-din-3-yl)-5-(2-(3-fluoropyrrolidin-1-yl)-2-oxoethyl)thieno[3,2-c]pyridin-4(5H)-one] | 28%
11 | O=C(Cn1ccc2scc(-c3ccc(F)c(C(F)(F)F)c3)c2c1=O)N1CC2(COC2)C1 [Example 69, 3-(4-fluoro-3-(trifluoromethyl)phen-yl)-5-(2-oxo-2-(2-oxa-6-azaspiro[3.3]heptan-6-yl)ethyl)thieno[3,2-c]pyridin-4(5H)-one] | 16%
12 | O=C(Cn1ccc2scc(-c3ccc(Cl)c(C(F)(F)F)c3)c2c1=O)N1CC(F)(F)C1 [Example 5, 3-(4-chloro-3-(trifluoromethyl)phenyl)-5-(2-(3,3-difluoroazetidin-1-yl)-2-oxoethyl)thieno[3,2-c]pyridin-4(5H)-one] | 139%
13 | Cc1cn(CC(=O)N2CCC(F)C2)c(=O)c2c(-c3ccc(F)c(C(F)(F)F)c3)ccn12 (centres unmarked) [Example 411, 8-(4-fluoro-3-(trifluoromethyl)phenyl)-2-(2-(3-fluoropyrrolidin-1-yl)-2-oxoethyl)-4-methylpyrrolo[1,2-a]pyrazin-1(2H)-one] | 59%
14 | N=C(NO)c1cn(CC(=O)N2CCC(F)C2)c(=O)c2c(-c3ccc(F)c(C(F)(F)F)c3)csc12 (centres unmarked) [Example 110, 3-(4-fluoro-3-(trifluoromethyl)phenyl)-5-(2-(3-fluoropyrrolidin-1-yl)-2-oxoethyl)-N-hydroxy-4-oxo-4,5-dihydrothieno[3,2-c]pyridine-7-carboximidamide] | 33%
15 | O=C(Cn1cc(-c2ccncc2)c2scc(-c3ccc(Cl)c(C(F)(F)F)c3)c2c1=O)N1CCCC1 [Example 103, 3-(4-chloro-3-(trifluoromethyl)phenyl)-5-(2-oxo-2-(pyrrolidin-1-yl)ethyl)-7-(pyridin-4-yl)thieno[3,2-c]pyridin-4(5H)-one] | 32%
16 | O=C(Cn1cc(Br)c2scc(-c3ccc(Cl)c(C(F)(F)F)c3)c2c1=O)N1CCCC1 [Example 98, 7-bromo-3-(4-chloro-3-(trifluoromethyl)phenyl)-5-(2-oxo-2-(pyrrolidin-1-yl)ethyl)thieno[3,2-c]pyridin-4(5H)-one] | 40%
17 | O=C(Cn1ccc2ccc(-c3ccc(Cl)c(C(F)(F)F)c3)cc2c1=O)N1CCCC1 [Example 310, 7-(4-chloro-3-(trifluoromethyl)phenyl)-2-(2-oxo-2-(pyrrolidin-1-yl)ethyl)isoquinolin-1(2H)-one] | 3%
18 | O=C(Cn1cnc2ccn(-c3ccc(Cl)cc3)c2c1=O)N1CCC(F)(F)CC1 [Example 373, 5-(4-chlorophenyl)-3-(2-(4,4-difluoropiperidin-1-yl)-2-oxoethyl)-3H-pyrrolo[3,2-d]pyrimidin-4(5H)-one] | 3%
19 | O=C(Cn1ccn2c(C3CC3)nc(-c3ccc(F)c(C(F)(F)F)c3)c2c1=O)N1CCC(F)C1 (centres unmarked) [Example 434, 3-cyclopropyl-1-(4-fluoro-3-(trifluoromethyl)phenyl)-7-(2-(3-fluoropyrrolidin-1-yl)-2-oxoethyl)imidazo[1,5-a]pyrazin-8(7H)-one] | 40%
20 | O=C(Cn1ccc2scc(-c3ccc(Cl)c(C(F)(F)F)c3)c2c1=O)N1CCC(F)C1 (centres unmarked) [Example 4, 3-(4-chloro-3-(trifluoromethyl)phenyl)-5-(2-(3-fluoropyrrolidin-1-yl)-2-oxoethyl)thieno[3,2-c]pyridin-4(5H)-one] | 107%
21 | CC1(N)CN(C(=O)Cn2ccc3scc(-c4ccc(F)c(Cl)c4)c3c2=O)C1 [Example 95] | 1%
22 | COC1(C)CN(C(=O)Cn2ccc3scc(-c4ccc(Cl)c(Cl)c4)c3c2=O)C1 [Example 63, 3-(3,4-dichlorophenyl)-5-(2-(3-methoxy-3-methylazetidin-1-yl)-2-oxoethyl)thieno[3,2-c]pyridin-4(5H)-one] | 16%
23 | O=C(Cn1ccc2scc(-c3ccc(F)c(C(F)(F)F)c3)c2c1=O)N1CC(F)C1 [Example 32, 3-(4-fluoro-3-(trifluoromethyl)phen-yl)-5-(2-(3-fluoroazetidin-1-yl)-2-oxoethyl)thieno[3,2-c]pyridin-4(5H)-one] | 60%
